In PubChem BioAssay (NCI) one finds GI50 and TGI data, which are given here for seven compounds.

Experiment in all cases: inhibition of tumour cell growth, NCI panel, 48 h
In experiment [1] the test system is 786-0 renal.
Experiment [2] deals with OVCAR-5 ovarian.
Experiment [3] concerns A549 NSCLC.
Experiment [4] relates to MALME-3M melanoma.
In experiment [5] the test system is CAKI-1 renal.
In experiment [6] the test system is RXF 393 renal.
Experiment [7] relates to A498 renal.
Experiment [8] relates to HCT-15 colon.
For experiment [9], the system named is COLO 205 colon.
The test system of experiment [10] is PC-3 prostate.

Structures are written as SMILES. Values joined by “and” are separate entries in the source; they are usually repeats but may differ in a detail not shown here. Equal entries are not always repeated.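 Interpolation was linear, between the two tested concentrations surrounding the appropriate level; five concentrations were tested over 48 hours in 96-well plates. Here, GI50 denotes the concentration required for 50% inhibition of growth. At the TGI there is no net growth.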

With `O=C(Nc1cccc(Cl)c1)Nc1ncc(CCNc2ncnc3ccsc23)s1`, the GI50 is 7.55 µM and 6.41 µM in [1]; 9.88 µM and > 10 µM in experiment [2]; 0.748 µM and 0.493 µM in [3]; 3.23 µM and 4.07 µM in experiment [4]; 1.12 µM and 1.34 µM in experiment [5]; 1.93 µM and 2.16 µM in experiment [6]. Also, the GI50 is 2.51 µM and 1.17 µM in experiment [7]; 2.99 µM and 1.79 µM in experiment [8]; < 0.0105 µM and 0.00997 µM in experiment [9]; 1.05 µM and 1.92 µM in experiment [10]. The TGI in experiment [1] was 41.1 µM and > 10 µM; in [2] it was 25.5 µM and > 10 µM; in experiment [3], 16.1 µM and > 10 µM; in experiment [4], 26 µM and > 10 µM; in experiment [5], 22.8 µM and > 10 µM; in experiment [6] it was 10.1 µM and > 10 µM. Further, the TGI in experiment [7] is 17.9 µM and > 10 µM; in experiment [8] it was 20.4 µM and > 10 µM; in experiment [9] it was 8.36 µM and 3.88 µM; in experiment [10], 13.8 µM and > 10 µM.

Take `O=c1cc(CNc2cc(F)cc(F)c2)c2ccc(I)cc2[nH]1`: the GI50 in experiment [1] is 1.05 µM; in [2], 16.2 µM; in [3], 0.707 µM; in experiment [4] it was 0.714 µM; in [5] it was 0.421 µM; in experiment [6], 0.374 µM. For the same compound, the GI50 is 0.279 µM in [7], 0.387 µM in experiment [8], 0.606 µM in experiment [9] and 0.571 µM in [10]. Also, the TGI in experiment [1] was more than 100 µM; in experiment [2], more than 100 µM; in experiment [3], more than 100 µM; in experiment [4], more than 100 µM; in experiment [5], more than 100 µM; in [6] it was 38 µM. Besides, the TGI in experiment [8], in [9] and in [10] was more than 100 µM in each case.

On to `COc1cc2c(cc1OC)-c1ccc3cc4c(cc3c1N(CCN1CCCC1)C2)OCO4`, for which the GI50 in [1] is 0.477 µM; in experiment [2], 1.34 µM; in experiment [3], 0.534 µM; in [4], 2.05 µM; in [5], 0.814 µM; in experiment [6], 0.794 µM. Further, the GI50 is 1.57 µM in experiment [7], 1.5 µM in experiment [8], 0.299 µM in experiment [9] and 0.303 µM in [10]. Further, the TGI in [1] was 1.92 µM; in experiment [2], 4.9 µM; in [3], 2.02 µM; in experiment [4], 14.2 µM; in experiment [5], 11.5 µM; in [6], 2.72 µM. Moreover, the TGI in experiment [7] worked out at 4.63 µM; in experiment [8] it was 3.4 µM; in experiment [9], 1.56 µM; in experiment [10], 1.85 µM.

Turning to `Fc1ccc(-c2nc3n(c2-c2ccncc2)CCS3)cc1`, the GI50 was more than 25 µM in [1]; more than 25 µM in [2]; more than 25 µM in [3]; more than 25 µM in experiment [4]; more than 25 µM in experiment [5]; more than 16.5 µM in experiment [6]. The GI50 in experiment [7], in experiment [8], in [9] and in [10] was more than 25 µM each time. Also, the TGI in experiment [1], in [2], in experiment [3], in [4], in [5] and in experiment [6] was more than 25 µM each time. For the same compound, the TGI in experiment [7], in experiment [8], in experiment [9] and in experiment [10] was more than 25 µM each time.

As for `N#Cc1ncc(/N=C/c2ccc(N(CCCl)CCCl)cc2)s1`, the GI50 in [1] was 4.52 µM; in experiment [2], 17.5 µM; in experiment [3], 28.2 µM; in experiment [4] it was 30.8 µM; in experiment [5], 2.22 µM; in experiment [6], 12.4 µM. Further, the GI50 in experiment [7] was 1.63 µM; in [8], 21.8 µM; in experiment [9] it was 64 µM; in [10], 34.9 µM. Besides, the TGI in experiment [1] was 20.3 µM; in experiment [2] it was more than 100 µM; in experiment [3], more than 100 µM; in experiment [4] it was more than 100 µM; in experiment [5] it was 8.18 µM; in [6], 28.9 µM. The TGI in experiment [7] was 4.4 µM; in [8] it was more than 100 µM; in [9], more than 100 µM; in [10], more than 100 µM.

With `COc1ccc(C(=O)/C=C/c2ccc(Cl)cc2)cc1S(=O)(=O)Nc1c(N)nc(SC)[nH]c1=O`, the GI50 is 1.95 µM in [1]; 2.83 µM in experiment [2]; 2.75 µM in experiment [3]; 3.02 µM in [4]; 3.83 µM in [5]; 1.6 µM in experiment [6]. For the same compound, the GI50 in [7] is 10.6 µM; in [8], 3.24 µM; in experiment [9], 1.76 µM; in [10], 2.53 µM. Moreover, the TGI in [1] worked out at 4.13 µM; in experiment [2] it was 9.53 µM; in experiment [3], 7.62 µM; in experiment [4], 9.93 µM; in [5] it was 18.6 µM; in experiment [6], 3.26 µM. Besides, the TGI in experiment [7] worked out at 22.4 µM; in [8], 14.9 µM; in [9], 3.42 µM; in experiment [10], 6.85 µM.

Regarding `COc1cccc(C2=C(c3cn(C)c4ccccc34)C(=O)NC2=O)c1`, the GI50 was 13.4 µM in experiment [1]; more than 25 µM in experiment [2]; 10.8 µM in experiment [3]; 14.2 µM in [4]; 7.9 µM in experiment [5]; 6.43 µM in experiment [6]. In addition, the GI50 in experiment [7] was 3.09 µM; in experiment [8], 5.57 µM; in experiment [9], 9.92 µM; in experiment [10], 10.2 µM. Further, the TGI in experiment [1], in experiment [2], in experiment [3], in experiment [4], in experiment [5] and in [6] was more than 25 µM in each case. The TGI in experiment [7], in experiment [8], in experiment [9] and in experiment [10] was more than 25 µM each time.
